Measured values from patent publication US7407982B2, “Oligo or polyalkylene glycol-coupled thrombin inhibitors” (HaemoSys GmbH, priority 2001, dated 2008).
Where two headings read alike, the source gives them in different places. Blank lines part the entries; values can stand above or below the compound they belong to.

How the values were obtained:
[1] = biological target: plasmin (Homo sapiens, UniProt P00747); experiment: Inhibiting constants with respect to plasmin; format: biochemical; conditions: Example 8a table
Source text: (§1) For this reason, two selected representatives of the inhibitors without PEG described in Tables 1 and 2 and one PEG-coupled inhibitor were examined with respect to their inhibiting effect on these enzymes.
(§2) Inhibiting constants of selected inhibitors with respect to the enzymes thrombin, plasmin, urokinase and tPA (values given in nM).

[2] = biological target: urokinase (Homo sapiens, UniProt P00749); experiment: Inhibiting constants with respect to urokinase; format: biochemical; conditions: Example 8a table
Source text: as §1, §2

[3] = biological target: T1, human α-thrombin (Homo sapiens, UniProt P00734); experiment: Determination of Ki for thrombin inhibition (chromogenic or fluorogenic substrate, Dixon); format: biochemical; conditions: for KiTrypsin/KiThrombin: Example 8, selectivity quotient
T1 construct: 50 μl human α-thrombin (Kordia); purchased Kordia
Experimental: The Ki values are the average values of at least three calculations.
For determining the thrombin inhibiting effect of all reversibly binding inhibitors and inhibitor conjugates with inhibiting constants smaller than 1 nM, a fluorescence spectrometer (LS50B from the company Perkin Elmer) was used. […] The Ki values are the average values of at least three calculations.

[4] = biological target: T2, trypsin (Bos taurus, UniProt P00760); experiment: Ki values for trypsin, determined analogously; format: biochemical
T2 sequence (P00760 24-246): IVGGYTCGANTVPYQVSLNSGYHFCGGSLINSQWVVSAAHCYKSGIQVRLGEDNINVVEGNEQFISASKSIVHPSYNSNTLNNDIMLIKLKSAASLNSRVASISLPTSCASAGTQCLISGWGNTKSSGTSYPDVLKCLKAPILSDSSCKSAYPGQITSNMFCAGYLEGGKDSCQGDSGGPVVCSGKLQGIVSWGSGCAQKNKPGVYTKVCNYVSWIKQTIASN
Experimental: The Ki values for trypsin were determined analogously.
For optimizing the inhibitor conjugates, in particular of the following Examples 1 and 2, suitable groups R1 were sought which allow as strong a thrombin inhibition as possible. For examining the selectivity of the compounds, the inhibiting constants for trypsin were determined as well. The higher the quotient [KiTrypsin/KiThrombin], the more selectively the compound functions as a thrombin inhibitor. In order to facilitate the synthesis, this optimization was first carried out without coupling a polyalkylene glycol group to inhibitor molecules of formula (II) as listed in Table I. These compounds, which are active as thrombin inhibitors themselves, can be used as synthetic intermediates for the inhibitor conjugates of formula (I). As a central component, a glycyl-prolyl-dipeptide was consistently incorporated into the inhibitors.

[5] = biological target: tPA (Homo sapiens, UniProt P00750); experiment: Inhibiting constants with respect to tPA; format: biochemical; conditions: Example 8a table
Source text: as §1, §2

[6] = biological target: T3, thrombin (Homo sapiens, UniProt P00734); conditions: taken from the literature, cited from earlier work
[7] = biological target: T3, thrombin; experiment: Kinetic constants of chloromethyl ketone inhibitors (method of Stein and Trainor); format: biochemical; conditions: chloromethyl ketone inhibitor; for Ki: read-out: Kii
[8] = Elimination of the inhibitor conjugates in rats (blood level, urine recovery, clotting test); format: in vivo; conditions: female, Wistar, rat; for half-life: blood
Experimental: Preliminary remarks: Female Wistar rats with a body weight between 150 to 250 g were used for the experiments. The animals were kept under conventional conditions and were provided with standard food and water ad libitum. Anaesthetization was carried out with 1.5 g ethylurethane per kg of body weight. Then the right and left jugular veins were prepared and catheters were inserted so that blood could be drawn at different points of time. The urine was collected throughout the entire test period and the inhibitor concentration was determined by means of a clotting test.

[9] = Example 8, read-out: KiThrombin
[10] = Table I, formula (II) compounds
[11] = Table 2, formula (III) compounds

Chain of plasmin (P00747 581-810 limits assumed, species assumed): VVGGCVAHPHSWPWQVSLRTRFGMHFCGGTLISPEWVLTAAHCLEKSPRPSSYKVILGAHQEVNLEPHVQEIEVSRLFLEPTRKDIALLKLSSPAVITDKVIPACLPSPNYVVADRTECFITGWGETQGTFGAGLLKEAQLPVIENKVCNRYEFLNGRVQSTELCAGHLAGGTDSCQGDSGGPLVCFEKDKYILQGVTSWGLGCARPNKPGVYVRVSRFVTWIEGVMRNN
Chain of plasmin (P00747 97-580 partner limits assumed, species assumed): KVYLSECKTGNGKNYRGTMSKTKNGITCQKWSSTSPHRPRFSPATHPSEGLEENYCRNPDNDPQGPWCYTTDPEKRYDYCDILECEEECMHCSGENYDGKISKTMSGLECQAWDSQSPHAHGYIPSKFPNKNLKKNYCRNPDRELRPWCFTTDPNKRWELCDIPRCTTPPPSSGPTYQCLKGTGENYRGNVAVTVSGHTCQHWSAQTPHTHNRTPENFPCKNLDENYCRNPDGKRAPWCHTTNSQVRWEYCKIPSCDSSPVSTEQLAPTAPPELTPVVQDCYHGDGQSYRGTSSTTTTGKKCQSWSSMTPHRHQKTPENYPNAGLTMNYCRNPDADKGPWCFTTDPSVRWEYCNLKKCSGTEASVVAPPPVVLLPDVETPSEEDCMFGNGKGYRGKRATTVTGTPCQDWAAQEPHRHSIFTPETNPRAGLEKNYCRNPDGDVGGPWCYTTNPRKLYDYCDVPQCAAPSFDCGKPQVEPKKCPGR
Chain of tPA (P00750 36-562, species assumed): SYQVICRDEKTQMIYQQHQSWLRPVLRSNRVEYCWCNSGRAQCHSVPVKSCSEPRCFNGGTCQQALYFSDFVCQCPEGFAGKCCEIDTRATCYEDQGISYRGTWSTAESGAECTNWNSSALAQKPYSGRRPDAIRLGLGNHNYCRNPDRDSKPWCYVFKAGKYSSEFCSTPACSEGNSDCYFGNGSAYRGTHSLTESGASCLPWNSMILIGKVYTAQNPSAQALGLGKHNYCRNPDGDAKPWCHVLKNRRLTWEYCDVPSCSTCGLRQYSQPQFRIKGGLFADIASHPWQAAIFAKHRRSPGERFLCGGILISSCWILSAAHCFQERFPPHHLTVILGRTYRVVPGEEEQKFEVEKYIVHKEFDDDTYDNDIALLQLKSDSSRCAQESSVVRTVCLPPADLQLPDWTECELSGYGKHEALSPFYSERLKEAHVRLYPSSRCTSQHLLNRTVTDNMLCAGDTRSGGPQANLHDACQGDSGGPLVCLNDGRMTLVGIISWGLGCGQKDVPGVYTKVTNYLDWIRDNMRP

Compound: 4-methoxy-benzenesulfonyl-Asn(PEG2000-OMe)-Pro-4-amidinobenzylamide
Ki [1]: 33500 nM
Ki [2]: 157000 nM
KiTrypsin/KiThrombin [3]: 174
Ki [3, 9]: 0.53 nM
Ki ([4]; Example 8, read-out: KiTrypsin): 92.5 nM
Ki [5]: 599000 nM

Compound: COc1ccc(S(=O)(=O)NCC(=O)N2CCC[C@H]2C(=O)NCc2ccc(C(=N)N)cc2)cc1 [1c]
Ki [1]: 5800 nM
Ki [2]: 225000 nM
Ki Trypsin/Ki Thrombin ([3]; Table 2, selectivity quotient): 23.4
Ki [3, 10]: 0.97 nM
Ki Trypsin/Ki Thrombin ([3]; Table I, selectivity quotient): 23.4
Ki [5]: 630 nM

Compound: NC(N)=NCCC[C@H](NC(=O)[C@@H]1CCCN1C(=O)[C@H](N)Cc1ccccc1)C(=O)CCl [PPACK, D-Phe-Pro-Arg-CH2—Cl]
Kinact/Ki [6]: 4.4e+06 M⁻¹ s⁻¹
kinact [6]: 0.11 s⁻¹
Ki ([6]; read-out: Kii): 25 nM

Compound: N=C(N)NCCC[C@H](NC(=O)[C@@H]1CCCN1C(=O)[C@@H](CC1CCCCC1)NCC(=O)O)C(=O)CCl.O=C(O)C(F)(F)F.O=C(O)C(F)(F)F [analogous non-PEG-coupled compound, H-d-N(CH2—COOH)Cha-Pro-Arg-CH2—Cl×2 trifluoroacetic acid, reference compound]
Kinact/Ki [7]: 2.1e+07 M⁻¹ s⁻¹
kinact [7]: 0.079 s⁻¹
Ki [7]: 3.8 nM

Compound: N=C(N)c1ccc(CNC(=O)[C@@H]2CCCN2C(=O)[C@H](CC(=O)OCc2ccccc2)NS(=O)(=O)c2ccc3ccccc3c2)cc1 [compound 36]
Ki [3, 11]: 1.3 nM
Ki Trypsin/Ki Thrombin ([3]; Table 2, selectivity quotient): 13.6
Ki [4, 11]: 17.6 nM

Compound: N=C(N)c1ccc(CNC(=O)[C@@H]2CCCN2C(=O)[C@H](CN)NS(=O)(=O)c2ccc3ccccc3c2)cc1 [compound 37]
Ki [3, 11]: 2.4 nM
Ki Trypsin/Ki Thrombin ([3]; Table 2, selectivity quotient): 4.3
Ki [4, 11]: 10.3 nM

Compound: N=C(N)c1ccc(CNC(=O)[C@@H]2CCCN2C(=O)[C@@H](CC(N)=O)NS(=O)(=O)c2ccc3ccccc3c2)cc1 [compound 43]
Ki [3, 11]: 52.5 nM
Ki Trypsin/Ki Thrombin ([3]; Table 2, selectivity quotient): 0.42
Ki [4, 11]: 22.4 nM

Compound: COc1ccc(S(=O)(=O)N[C@@H](CC(=O)NCc2ccc(C#N)cc2)C(=O)N2CCC[C@H]2C(=O)NCc2ccc(C(=N)N)cc2)cc1 [compound 44]
Ki [3, 11]: 0.045 nM
Ki Trypsin/Ki Thrombin ([3]; Table 2, selectivity quotient): 911
Ki [4, 11]: 41 nM

Compound: COc1ccc(S(=O)(=O)N[C@@H](CC(=O)NCc2ccc(CN)cc2)C(=O)N2CCC[C@H]2C(=O)NCc2ccc(C(=N)N)cc2)cc1 [compound 45]
Ki [3, 11]: 0.061 nM
Ki Trypsin/Ki Thrombin ([3]; Table 2, selectivity quotient): 639
Ki [4, 11]: 39 nM

Compound: N=C(N)N1CCC(CNC(=O)[C@@H]2CCCN2C(=O)[C@@H](CC2CCCCC2)NCC(=O)NCC2COCCOCCOCCOCCO2)CC1 (some centres unmarked) [inhibitor structure (VI)]
half-life ([8]; sc, rats, subcutaneous administration of 5 mg/kg): ~5.83 h

Compound: D-N(CH2—CO—NH-PEG5000-OMe)Cha-Pro-4-(amidomethyl)-N(amidino)piperidine×2 HCl
KiTrypsin/KiThrombin [3]: 100
Ki [3, 9]: 2.4 nM
Ki [3, 10]: 3.5 nM
Ki Trypsin/Ki Thrombin ([3]; Table I, selectivity quotient): 1.8
Ki ([4]; Example 8, read-out: KiTrypsin): 239 nM
Ki [4, 10]: 6.2 nM

Compound: H-D-N(CH2—CO—NH-PEG5000-OMe)Cha-Pro-4-(amidino)benzylamide
KiTrypsin/KiThrombin [3]: 3.5
Ki [3, 9]: 0.97 nM
Ki [3, 10]: 1.9 nM
Ki Trypsin/Ki Thrombin ([3]; Table I, selectivity quotient): 1.6
Ki ([4]; Example 8, read-out: KiTrypsin): 3.4 nM
Ki [4, 10]: 3 nM

Compound: H-d-N(CH2—CONH-PEG2000-OMe)Cha-Pro-Arg-CH2—Cl×2 trifluoroacetic acid
Ki [3, 10]: 3.8 nM
Ki Trypsin/Ki Thrombin ([3]; Table I, selectivity quotient): 0.97
Ki [4, 10]: 3.7 nM
Kinact/Ki [7]: 7.5e+06 M⁻¹ s⁻¹
kinact [7]: 0.08 s⁻¹
Ki [7]: 10.6 nM

Now from value to compound:

Ki [3, 11]: 0.065 nM
Ki Trypsin/Ki Thrombin ([3]; Table 2, selectivity quotient): 600
Ki [4, 11]: 39 nM
Compound: COc1ccc(S(=O)(=O)N[C@@H](CC(=O)NCc2ccccc2)C(=O)N2CCC[C@H]2C(=O)NCc2ccc(C(=N)N)cc2)cc1 [compound 47]

Ki [3, 11]: 0.08 nM
Ki Trypsin/Ki Thrombin ([3]; Table 2, selectivity quotient): 512
Ki [4, 11]: 41 nM
Compound: COc1ccc(S(=O)(=O)N[C@@H](CC(=O)NCc2cccc(CN)c2)C(=O)N2CCC[C@H]2C(=O)NCc2ccc(C(=N)N)cc2)cc1 [compound 48]

Ki [3, 11]: 0.21 nM
Ki Trypsin/Ki Thrombin ([3]; Table 2, selectivity quotient): 181
Ki [4, 11]: 38 nM
Compound: COc1ccc(S(=O)(=O)N[C@@H](CC(=O)OCc2ccccc2)C(=O)N2CCC[C@H]2C(=O)NCc2ccc(C(=N)N)cc2)cc1 [compound 49]

Ki [1]: 17500 nM
Ki [2]: 52000 nM
Ki [3, 11]: 0.36 nM
Ki Trypsin/Ki Thrombin ([3]; Table 2, selectivity quotient): 147
Ki [5]: 47000 nM
Compound: COc1ccc(S(=O)(=O)NC(CC(N)=O)C(=O)N2CCCC2C(=O)NCc2ccc(C(=N)N)cc2)cc1 (centres unmarked) [compound 50]

Ki [3, 11]: 0.255 nM
Ki Trypsin/Ki Thrombin ([3]; Table 2, selectivity quotient): 67
Ki [4, 11]: 17 nM
Compound: COc1ccc(S(=O)(=O)N[C@@H](CO)C(=O)N2CCC[C@H]2C(=O)NCc2ccc(C(=N)N)cc2)cc1 [compound 51]

Ki [3, 11]: 0.68 nM
Ki Trypsin/Ki Thrombin ([3]; Table 2, selectivity quotient): 31
Ki [4, 11]: 21.4 nM
Compound: COC(=O)C[C@H](NS(=O)(=O)c1ccc(OC)cc1)C(=O)N1CCC[C@H]1C(=O)NCc1ccc(C(=N)N)cc1 [compound 52]

half-life ([8]; intravenous administration of 10 mg/kg): ~0.275 h
dose excreted ([8]; urine, sc, rats, subcutaneous administration, read-out: cumulative percentage recovery in the urine): ~58%
Compound: N=C(N)N1CCC(CNC(=O)[C@@H]2CCCN2C(=O)[C@@H](CC2CCCCC2)NCC(=O)O)CC1 [formula (IV)]
